Experimental data taken from patent publication EP2997966A1, “Naphthyl Sulfonamide Pyrrolidine Derivatives as KEAP-1 Modulators for the Treatment of Diabetes, Obesity, Dyslipidemia and Related Disorders” (SANOFI, priority 2014, dated 2016).

Target: T1, human Keap1 kelch domain (amino acids Ala321-Thr609) (Homo sapiens, UniProt Q14145)
T1 construct: human Keap1 kelch domain (amino acids Ala321-Thr609)
Experiment: Keap1-Nrf2 peptide binding assay (fluorescence polarisation)
Settings: binding to fluorescently labeled human Nrf2 peptide; 20 nM Keap1 kelch domain, 50 nM peptide
Experimental: Keap1-Nrf2 peptide binding assay
Two microliters of test compound in reaction buffer (phosphate-buffered saline, 2 mM DL-dithiothreitol, 0.015 % (v/v) Brij-35) containing 6 % (v/v) DMSO were mixed with two microliters of the Keap1 kelch domain in reaction buffer in a black 384-well small volume microtiter plate and incubated at ambient temperature for 15 minutes. Thereafter, two microliters were added of the fluorescently labeled Nrf2 peptide in reaction buffer, and the mixture was incubated for a further 30 minutes at ambient temperature. Final concentrations of the Keap1 kelch domain and the fluorescently labeled Nrf2 peptide were 20 nM and 50 nM, respectively.
Fluorescence polarization (FP) was measured at excitation and emission wavelengths of 635 nm and 660 nm, respectively. Positive controls for binding (two microliters of reaction buffer containing 6 % (v/v) DMSO instead of test compound in the same buffer) and negative controls (as positive controls, but without Keap1 kelch domain) were included on each microtiter plate.

T1 sequence (Q14145 321-609): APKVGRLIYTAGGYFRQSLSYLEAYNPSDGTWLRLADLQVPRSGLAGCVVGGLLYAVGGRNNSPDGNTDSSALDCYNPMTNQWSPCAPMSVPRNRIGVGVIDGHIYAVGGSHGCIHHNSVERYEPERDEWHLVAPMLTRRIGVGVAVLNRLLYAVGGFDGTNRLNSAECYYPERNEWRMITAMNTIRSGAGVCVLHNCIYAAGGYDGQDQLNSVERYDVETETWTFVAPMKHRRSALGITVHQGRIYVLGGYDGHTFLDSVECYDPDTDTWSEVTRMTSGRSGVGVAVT

SMILES	IC50 [µM]
Cc1cc(C)c(C)c(S(=O)(=O)Nc2ccc(N3CCCC(C(=O)O)C3)c3ncccc23)c1C (stereo not drawn) [Example 15, 1-[5-[(2,3,5,6-tetramethylphenyl)sulfonylamino]-8-quinolyl]piperidine-3-carboxylic acid; 2,2,2-trifluoroacetic acid]	24
O=C(O)[C@H]1CCN(c2ccc(NS(=O)(=O)c3cccc(Cl)c3Cl)c3ccccc23)C1 [Example 20, (3S)-1-[4-[(2,3-dichlorophenyl)sulfonylamino]-1-naphthyl]pyrrolidine-3-carboxylic acid]	8.6
Cc1nn(C)c(C)c1S(=O)(=O)Nc1ccc(N2CC[C@H](C(=O)O)C2)c2ccccc12 [Example 22, (3S)-1-[4-[(1,3,5-trimethylpyrazol-4-yl)sulfonylamino]-1-naphthyl]pyrrolidine-3-carboxylic acid]	4.5
O=C(O)[C@H]1CCN(c2ccc(NS(=O)(=O)c3ccc(Cl)c(C(F)(F)F)c3)c3ccccc23)C1 [Example 23, (3S)-1-[4-[[4-chloro-3-(trifluoromethyl)phenyl]sulfonylamino]-1-naphthyl]pyrrolidine-3-carboxylic acid]	8.5
Cc1nc(C)c(S(=O)(=O)Nc2ccc(N3CC[C@H](C(=O)O)C3)c3ccccc23)s1 [Example 24, (3S)-1-[4-[(2,4-dimethylthiazol-5-yl)sulfonylamino]-1-naphthyl]pyrrolidine-3-carboxylic acid]	4.3
Cc1nn(-c2ccccc2)c(C)c1S(=O)(=O)Nc1ccc(N2CC[C@H](C(=O)O)C2)c2ccccc12 [Example 25, (3S)-1-[4-[(3,5-dimethyl-1-phenyl-pyrazol-4-yl)sulfonylamino]-1-naphthyl]pyrrolidine-3-carboxylic acid]	4.1
Cc1ccc(Cl)cc1S(=O)(=O)Nc1ccc(N2CC[C@H](C(=O)O)C2)c2ccccc12 [Example 26, (3S)-1-[4-[(5-chloro-2-methylphenyl)sulfonylamino]-1-naphthyl]pyrrolidine-3-carboxylic acid]	8.1
O=C(O)[C@H]1CCN(c2ccc(NS(=O)(=O)c3cc(Cl)ccc3Cl)c3ccccc23)C1 [Example 28, (3S)-1-[4-[(2,5-dichlorophenyl)sulfonylamino]-1-naphthyl]pyrrolidine-3-carboxylic acid]	5.8
Cc1nn(C)c(C)c1S(=O)(=O)Nc1ccc(N2CC[C@@H](C(=O)O)C2)c2ccccc12 [Example 38, (3R)-1-[4-[(1,3,5-trimethylpyrazol-4-yl)sulfonylamino]-1-naphthyl]pyrrolidine-3-carboxylic acid]	0.9
Cc1nc(C)c(S(=O)(=O)Nc2ccc(N3CC[C@@H](C(=O)O)C3)c3ccccc23)s1 [Example 41, (3R)-1-[4-[(2,4-dimethylthiazol-5-yl)sulfonylamino]-1-naphthyl]pyrrolidine-3-carboxylic acid]	1.6
Cc1nn(-c2ccccc2)c(C)c1S(=O)(=O)Nc1ccc(N2CC[C@@H](C(=O)O)C2)c2ccccc12 [Example 42, (3R)-1-[4-[(3,5-dimethyl-1-phenyl-pyrazol-4-yl)sulfonylamino]-1-naphthyl]pyrrolidine-3-carboxylic acid]	3

Same assay, conditions: binding to fluorescently labeled human Nrf2 peptide; 20 nM Keap1 kelch domain, 50 nM peptide; read-out: IC50

SMILES	IC50 [µM]
Cc1cc(C)c(C)c(S(=O)(=O)Nc2ccc(C3CCCC3C(=O)O)c3ccccc23)c1C (stereo not drawn) [Example 1, 2-[4-[(2,3,5,6-tetramethylphenyl)sulfonylamino]-1-naphthyl]cyclopentanecarboxylic acid]	3.1
Cc1cc(C)c(C)c(S(=O)(=O)Nc2ccc(N3CCCC(C(=O)O)C3)c3ccccc23)c1C (stereo not drawn) [Example 5, 1-[4-[(2,3,5,6-tetramethylphenyl)sulfonylamino]-1-naphthyl]piperidine-3-carboxylic acid; 2,2,2-trifluoroacetic acid]	0.5
Cc1cc(C)c(C)c(S(=O)(=O)Nc2ccc(N3CCC(C)(C(=O)O)C3)c3ccccc23)c1C (stereo not drawn) [Example 9, 3-methyl-1-[4-[(2,3,5,6-tetramethylphenyl)sulfonylamino]-1-naphthyl]pyrrolidine-3-carboxylic acid]	0.8
Cc1nn(C)c(Cl)c1S(=O)(=O)Nc1ccc(N2CCC(C)(C(=O)O)C2)c2ccccc12 (stereo not drawn) [Example 10, 1-[4-[(5-chloro-1,3-dimethyl-pyrazol-4-yl)sulfonylamino]-1-naphthyl]-3-methyl-pyrrolidine-3-carboxylic acid]	1

Continued, values first:

IC50 [µM]	SMILES
1.2	Cc1nn(C)c(Cl)c1S(=O)(=O)Nc1ccc(N2CCC(C(=O)O)C2)c2ccccc12 (stereo not drawn) [Example 4, 1-[4-[(5-chloro-1,3-dimethyl-pyrazol-4-yl)sulfonylamino]-1-naphthyl]pyrrolidine-3-carboxylic acid]
5	CCCCn1cc(S(=O)(=O)Nc2ccc(N3CC[C@H](C(=O)O)C3)c3ccccc23)c(C)n1 [Example 11, (3S)-1-[4-[(1-butyl-3-methyl-pyrazol-4-yl)sulfonylamino]-1-naphthyl]pyrrolidine-3-carboxylic acid]
1.3	O=C(O)[C@@H]1CCN(c2ccc(NS(=O)(=O)c3ccc(Cl)cc3Cl)c3ccccc23)C1 [Example 12, (3R)-1-[4-[(2,4-dichlorophenyl)sulfonylamino]-1-naphthyl]pyrrolidine-3-carboxylic acid]
2.3	CCCCn1cc(S(=O)(=O)Nc2ccc(N3CC[C@@H](C(=O)O)C3)c3ccccc23)c(C)n1 [Example 13, (3R)-1-[4-[(1-butyl-3-methyl-pyrazol-4-yl)sulfonylamino]-1-naphthyl]pyrrolidine-3-carboxylic acid]
2.9	Cc1c(Cl)cccc1S(=O)(=O)Nc1ccc(N2CC[C@H](C(=O)O)C2)c2ccccc12 [Example 16, (3S)-1-[4-[(3-chloro-2-methylphenyl)sulfonylamino]-1-naphthyl]pyrrolidine-3-carboxylic acid]
2.9	O=C(O)[C@H]1CCN(c2ccc(NS(=O)(=O)c3cc(Cl)cc(Cl)c3)c3ccccc23)C1 [Example 17, (3S)-1-[4-[(3,5-dichlorophenyl)sulfonylamino]-1-naphthyl]pyrrolidine-3-carboxylic acid]
9	O=C(O)[C@H]1CCN(c2ccc(NS(=O)(=O)c3cc(Cl)sc3Cl)c3ccccc23)C1 [Example 18, (3S)-1-[4-[(2,5-dichloro-3-thienyl)sulfonylamino]-1-naphthyl]pyrrolidine-3-carboxylic acid]
6.2	O=C(O)[C@H]1CCN(c2ccc(NS(=O)(=O)c3ccc(Cl)cc3Cl)c3ccccc23)C1 [Example 19, (3S)-1-[4-[(2,4-dichlorophenyl)sulfonylamino]-1-naphthyl]pyrrolidine-3-carboxylic acid]
7.1	COc1ccc(F)c(S(=O)(=O)Nc2ccc(N3CC[C@H](C(=O)O)C3)c3ccccc23)c1 [Example 27, (3S)-1-[4-[(2-fluoro-5-methoxyphenyl)sulfonylamino]-1-naphthyl]pyrrolidine-3-carboxylic acid]
7	Cc1c(S(=O)(=O)Nc2ccc(N3CC[C@H](C(=O)O)C3)c3ccccc23)cnn1CC(C)C [Example 29, (3S)-1-[4-[(1-isobutyl-5-methyl-pyrazol-4-yl)sulfonylamino]-1-naphthyl]pyrrolidine-3-carboxylic acid]
4.1	Cc1c(S(=O)(=O)Nc2ccc(N3CC[C@H](C(=O)O)C3)c3ccccc23)cnn1C1CCCC1 [Example 30, (3S)-1-[4-[(1-cyclopentyl-5-methyl-pyrazol-4-yl)sulfonylamino]-1-naphthyl]pyrrolidine-3-carboxylic acid]
1.9	CC(=O)Nc1nc(C)c(S(=O)(=O)Nc2ccc(N3CC[C@@H](C(=O)O)C3)c3ccccc23)s1 [Example 31, (3R)-1-[4-[(2-acetamido-4-methyl-thiazol-5-yl)sulfonylamino]-1-naphthyl]pyrrolidine-3-carboxylic acid]
0.8	Cc1c(Cl)cccc1S(=O)(=O)Nc1ccc(N2CC[C@@H](C(=O)O)C2)c2ccccc12 [Example 32, (3R)-1-[4-[(3-chloro-2-methylphenyl)sulfonylamino]-1-naphthyl]pyrrolidine-3-carboxylic acid]
1.7	O=C(O)[C@@H]1CCN(c2ccc(NS(=O)(=O)c3cc(Cl)cc(Cl)c3)c3ccccc23)C1 [Example 33, (3R)-1-[4-[(3,5-dichlorophenyl)sulfonylamino]-1-naphthyl]pyrrolidine-3-carboxylic acid]
2.9	O=C(O)[C@@H]1CCN(c2ccc(NS(=O)(=O)c3cc(Cl)sc3Cl)c3ccccc23)C1 [Example 34, (3R)-1-[4-[(2,5-dichloro-3-thienyl)sulfonylamino]-1-naphthyl]pyrrolidine-3-carboxylic acid]
1.8	O=C(O)[C@@H]1CCN(c2ccc(NS(=O)(=O)c3cccc(Cl)c3Cl)c3ccccc23)C1 [Example 35, (3R)-1-[4-[(2,3-dichlorophenyl)sulfonylamino]-1-naphthyl]pyrrolidine-3-carboxylic acid]
6.5	Cc1c(S(=O)(=O)Nc2ccc(N3CC[C@@H](C(=O)O)C3)c3ccccc23)cnn1-c1ccccc1 [Example 39, (3R)-1-[4-[(5-methyl-1-phenyl-pyrazol-4-yl)sulfonylamino]-1-naphthyl]pyrrolidine-3-carboxylic acid]
5	O=C(O)[C@@H]1CCN(c2ccc(NS(=O)(=O)c3ccc(Cl)c(C(F)(F)F)c3)c3ccccc23)C1 [Example 40, (3R)-1-[4-[[4-chloro-3-(trifluoromethyl)phenyl]sulfonylamino]-1-naphthyl]pyrrolidine-3-carboxylic acid]
